Reference: US20240140979A1, “HETEROCYCLIC INHIBITORS OF CD73 FOR TREATMENT OF DISEASE” (Teon Therapeutics, Inc., priority 2022, published 2024)

Target: human CD73 enzyme (Homo sapiens (Human), UniProt P21589)
Assay: Biochemical CD73 Assay
Details: recombinant human CD73 2 nM, AMP 40 μM, Malachite Green free phosphate detection
Procedure: Activity of recombinant CD73 was measured by quantification of free phosphate using the Malachite Green detection system (R&D Systems #DY996). Test compounds were solubilized in DMSO and dispensed into 384-well polystyrene plates in a 8-point 3× titration in duplicates. Then, 10 μL of 4 nM human CD73 enzyme (Novoprotein #C446) in phosphate- free assay buffer (10 mM HEPES, pH 7.4, 125 mM NaCl, 1 mM KCl, 10 mM glucose, 2 mM MgCl2) was added to the plates. The compound and enzyme were incubated for 15 min at RT. Then, 10 μL of 80 μM AMP (Sigma Aldrich #A1752) in the assay buffer was added and the reaction mixture was incubated for […] at 37° C. The final concentrations of CD73 and AMP in the reaction were 2 nM and 40 μM, respectively. The reaction was stopped by adding 5 μL of Malachite Green reagent A and incubating for 10 mM at RT, followed by addition of 5 μL of Malachite Green reagent B and incubation for 20 mM at RT. Absorbance was then read at 620 nm with the Flexstation spectrophotometer (Molecular Devices). The IC50 values were determined using a four-parameter nonlinear regression curve fit.

Sequence of human CD73 enzyme (P21589 27-574): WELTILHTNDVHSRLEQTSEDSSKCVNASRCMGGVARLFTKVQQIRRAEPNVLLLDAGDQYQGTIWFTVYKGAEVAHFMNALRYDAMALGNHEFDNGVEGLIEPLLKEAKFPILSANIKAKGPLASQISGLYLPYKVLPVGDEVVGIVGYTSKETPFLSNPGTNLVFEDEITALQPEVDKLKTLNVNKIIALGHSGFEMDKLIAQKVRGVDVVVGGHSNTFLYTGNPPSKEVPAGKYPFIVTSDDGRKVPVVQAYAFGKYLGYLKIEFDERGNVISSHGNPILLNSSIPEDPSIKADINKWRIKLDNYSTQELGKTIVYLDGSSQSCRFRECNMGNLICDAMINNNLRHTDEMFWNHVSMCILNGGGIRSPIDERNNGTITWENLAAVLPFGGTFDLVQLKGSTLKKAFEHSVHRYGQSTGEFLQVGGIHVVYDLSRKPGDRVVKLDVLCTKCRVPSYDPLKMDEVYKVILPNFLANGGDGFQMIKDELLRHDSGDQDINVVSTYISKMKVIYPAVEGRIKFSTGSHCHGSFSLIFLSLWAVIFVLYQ

| SMILES | IC50 [nM] |
| --- | --- |
| COC[C@@](OC[C@H]1O[C@@H](n2ncc3c(NC4CCCC4)nc(Cl)nc32)[C@H](O)[C@@H]1O)(C(=O)NS(=O)(=O)N(C)C)P(=O)(O)O [Example 1, ((S)-2-(((2R,3S,4R,5R)-5-(6-Chloro-4-(cyclopentylamino)-1H-pyrazolo[3,4-d]pyrimidin-1-yl)-3,4-dihydroxytetrahydrofuran-2-yl)methoxy)-1-((N,N-dimethylsulfamoyl)amino)-3-methoxy-1-oxopropan-2-yl)phosphonic Acid] | 6.4 |
| COC[C@](OC[C@H]1O[C@@H](n2ncc3c(NC4CCCC4)nc(Cl)nc32)[C@H](O)[C@@H]1O)(C(=O)NS(=O)(=O)N(C)C)P(=O)(O)O [Example 2, ((R)-2-(((2R,3S,4R,5R)-5-(6-chloro-4-(cyclopentylamino)-1H-pyrazolo[3,4-d]pyrimidin-1-yl)-3,4-dihydroxytetrahydrofuran-2-yl)methoxy)-1-((N,N-dimethylsulfamoyl)amino)-3-methoxy-1-oxourouan-2-yl)phosphonic Acid] | 114 |
| COC[C@@](OC[C@H]1O[C@@H](n2ncc3c(NC4CCCC4)nc(Cl)nc32)[C@H](O)[C@@H]1O)(C(=O)NS(=O)(=O)N1CCCC1=O)P(=O)(O)O [Example 3] | 0.48 |
| COC[C@@](OC[C@H]1O[C@@H](n2ncc3c(NC4CCCC4)nc(Cl)nc32)[C@H](O)[C@@H]1O)(C(=O)NS(=O)(=O)N1CCCC1)P(=O)(O)O [Example 4] | 6 |
| COC[C@@](OC[C@H]1O[C@@H](n2ncc3c(NC4CCCC4)nc(Cl)nc32)[C@H](O)[C@@H]1O)(C(=O)NS(=O)(=O)N1CCC1)P(=O)(O)O [Example 5, ((S)-1-(Azetidine-1-sulfonamido)-2-(((2R,3S,4R,5R)-5-(6-chloro-4-(cyclopentylamino)-1H-pyrazolo[3,4-d]pyrimidin-1-yl)-3,4-dihydroxytetrahydrofuran-2-yl)methoxy)-3-methoxy-1-oxopropan-2-yl)phosphonic Acid] | 2.3 |
| COC[C@](OC[C@H]1O[C@@H](n2ncc3c(NC4CCCC4)nc(Cl)nc32)[C@H](O)[C@@H]1O)(C(=O)NS(=O)(=O)N1CCC1)P(=O)(O)O [Example 6, ((R)-1-(Azetidine-1-sulfonamido)-2-(((2R,3S,4R,5R)-5-(6-chloro-4-(cyclopentylamino)-1H-pyrazolo[3,4-d]pyrimidin-1-yl)-3,4-dihydroxytetrahydrofuran-2-yl)methoxy)-3-methoxy-1-oxopropan-2-yl)phosphonic Acid] | 805 |
| COC[C@@](OC[C@H]1O[C@@H](n2ncc3c(NC4CCCC4)nc(Cl)nc32)[C@H](O)[C@@H]1O)(C(=O)NS(=O)(=O)N1CC[C@@H](O)C1)P(=O)(O)O [Example 7] | 6.2 |
| COC[C@@](OC[C@H]1O[C@@H](n2ncc3c(NC4CCCC4)nc(Cl)nc32)[C@H](O)[C@@H]1O)(C(=O)NS(=O)(=O)N1CC[C@H](O)C1)P(=O)(O)O [Example 9, ((S)-2-(((2R,3S,4R,5R)-5-(6-Chloro-4-(cyclopentylamino)-1H-pyrazolo[3,4-d]pyrimidin-1-yl)-3,4-dihydroxytetrahydrofuran-2-yl)methoxy)-1-(((S)-3-hydroxypyrrolidine)-1-sulfonamido)-3-methoxy-1-oxopropan-2-yl)phosphonic Acid] | 3 |
